# Legend:
# Type in all cases: cell-based
# HL-60 (TB) = assay: NCI screen, growth of human tumor cells: Leukemia HL-60 (TB); conditions: HL-60 (TB) (Leukemia), 10^−4 molar
# Procedure: (§1) In the NCI screening process, each compound was tested and described by a minimum of 60 data points. The test data include, but are not limited to the type of cancer, the molar concentration used in the screen, and the percent growth of the cancer. In some cases, NMR and elemental analysis were used for structural assignment.
# K562 = assay: NCI screen, growth of human tumor cells: Leukemia K562; conditions: K562 (Leukemia), 10^−4 molar
# Procedure, shortened: (§2)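 Percent-growth read-out from the NCI cancer cell screen; data annotated by cancer type and molar concentration, ≥60 points per compound.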
# MOLT-4 = assay: NCI screen, growth of human tumor cells: Leukemia MOLT-4; conditions: MOLT-4 (Leukemia), 10^−4 molar
# Procedure, shortened: as §2
# RPMI-8226 = assay: NCI screen, growth of human tumor cells: Leukemia RPMI-8226; conditions: RPMI-8226 (Leukemia), 10^−4 molar
# Procedure, shortened: as §2
# SR = assay: NCI screen, growth of human tumor cells: Leukemia SR; conditions: SR
# Procedure, shortened: as §2
# EKVX = assay: NCI screen, growth of human tumor cells: Non-Small Cell Lung EKVX; conditions: EKVX (Non-Small Cell Lung), 10^−4 molar
# Procedure, shortened: as §2
# HOP-62 = assay: NCI screen, growth of human tumor cells: Non-Small Cell Lung HOP-62
# Procedure, shortened: as §2
# HOP-18 = assay: NCI screen, growth of human tumor cells: Non-Small Cell Lung HOP-18; conditions: HOP-18 (Non-Small Cell Lung), 10^−4 molar
# Procedure: as §1
# HOP-92 = assay: NCI screen, growth of human tumor cells: Non-Small Cell Lung HOP-92; conditions: HOP-92 (Non-Small Cell Lung), 10^−4 molar
# Procedure, shortened: as §2
# NCI-H226 = assay: NCI screen, growth of human tumor cells: Non-Small Cell Lung NCI-H226; conditions: NCI-H226 (Non-Small Cell Lung), 10^−4 molar
# Procedure, shortened: as §2
# NCI-H460 = assay: NCI screen, growth of human tumor cells: Non-Small Cell Lung NCI-H460; conditions: NCI-H460 (Non-Small Cell Lung), 10^−4 molar
# Procedure, shortened: as §2
# NCI-H322M = assay: NCI screen, growth of human tumor cells: Non-Small Cell Lung NCI-H322M; conditions: NCI-H322M, 10^−4 molar
# Procedure: as §1
# NCI-H23 = assay: NCI screen, growth of human tumor cells: Non-Small Cell Lung NCI-H23; conditions: NCI-H23, 10^−4 molar
# Procedure, shortened: as §2
# COLO205 = assay: NCI screen, growth of human tumor cells: Colon Cancer COLO205; conditions: COLO205 (Colon Cancer), 10^−4 molar
# Procedure, shortened: as §2
# HCT-116 = assay: NCI screen, growth of human tumor cells: Colon Cancer HCT-116; conditions: HCT-116, 10^−4 molar
# Procedure, shortened: as §2
# HT29 = assay: NCI screen, growth of human tumor cells: Colon Cancer HT29; conditions: HT29 (Colon Cancer), 10^−4 molar
# Procedure, shortened: as §2
# KM12 = assay: NCI screen, growth of human tumor cells: Colon Cancer KM12; conditions: KM12 (Colon Cancer), 10^−4 molar
# Procedure, shortened: as §2
# SF-268 = assay: NCI screen, growth of human tumor cells: CNS Cancer SF-268; conditions: SF-268 (CNS Cancer), 10^−4 molar
# Procedure, shortened: as §2
# SF-295 = assay: NCI screen, growth of human tumor cells: CNS Cancer SF-295; conditions: SF-295 (CNS Cancer), 10^−4 molar
# Procedure, shortened: as §2
# SNB-19 = assay: NCI screen, growth of human tumor cells: CNS Cancer SNB-19; conditions: SNB-19, 10^−4 molar
# Procedure, shortened: as §2
# SF-539 = assay: NCI screen, growth of human tumor cells: CNS Cancer SF-539; conditions: SF-539, 10^−4 molar
# Procedure, shortened: as §2
# SNB-75 = assay: NCI screen, growth of human tumor cells: CNS Cancer SNB-75; conditions: SNB-75 (CNS Cancer), 10^−4 molar
# Procedure, shortened: as §2
# M14 = assay: NCI screen, growth of human tumor cells: Melanoma M14; conditions: M14, 10^−4 molar
# Procedure, shortened: as §2
# SK-MEL-2 = assay: NCI screen, growth of human tumor cells: Melanoma SK-MEL-2; conditions: SK-MEL-2 (Melanoma), 10^−4 molar
# Procedure, shortened: as §2
# SK-MEL-28 = assay: NCI screen, growth of human tumor cells: Melanoma SK-MEL-28; conditions: SK-MEL-28, 10^−4 molar
# Procedure, shortened: as §2
# SK-MEL-5 = assay: NCI screen, growth of human tumor cells: Melanoma SK-MEL-5; conditions: SK-MEL-5, 10^−4 molar
# Procedure, shortened: as §2
# UACC-257 = assay: NCI screen, growth of human tumor cells: Melanoma UACC-257
# Procedure, shortened: as §2
# UACC-62 = assay: NCI screen, growth of human tumor cells: Melanoma UACC-62; conditions: UACC-62 (Melanoma), 10^−4 molar
# Procedure, shortened: as §2
# IGROVI = assay: NCI screen, growth of human tumor cells: Ovarian Cancer IGROVI; conditions: IGROVI (Ovarian Cancer), 10^−4 molar
# Procedure, shortened: as §2
# SK-OV-3 = assay: NCI screen, growth of human tumor cells: Ovarian Cancer SK-OV-3; conditions: SK-OV-3 (Ovarian Cancer), 10^−4 molar
# Procedure: as §1
# OVCAR-3 = assay: NCI screen, growth of human tumor cells: Ovarian Cancer OVCAR-3; conditions: OVCAR-3 (Ovarian Cancer), 10^−4 molar
# Procedure, shortened: as §2
# OVCAR-5 = assay: NCI screen, growth of human tumor cells: Ovarian Cancer OVCAR-5
# Procedure, shortened: as §2
# OVCAR-8 = assay: NCI screen, growth of human tumor cells: Ovarian Cancer OVCAR-8; conditions: OVCAR-8 (Ovarian Cancer), 10^−4 molar
# Procedure: as §1
# RXF-393 = assay: NCI screen, growth of human tumor cells: Renal Cancer RXF-393; conditions: RXF-393 (Renal Cancer), 10^−4 molar
# Procedure, shortened: as §2
# TK-10 = assay: NCI screen, growth of human tumor cells: Renal Cancer TK-10; conditions: TK-10 (Renal Cancer), 10^−4 molar
# Procedure: as §1
# SN12C = assay: NCI screen, growth of human tumor cells: Renal Cancer SN12C; conditions: SN12C (Renal Cancer), 10^−4 molar
# Procedure, shortened: as §2
# CAKI-1 = assay: NCI screen, growth of human tumor cells: Renal Cancer CAKI-1; conditions: CAKI-1 (Renal Cancer), 10^−4 molar
# Procedure, shortened: as §2
# UO-31 = assay: NCI screen, growth of human tumor cells: Renal Cancer UO-31; conditions: UO-31 (Renal Cancer), 10^−4 molar
# Procedure, shortened: as §2
# DU-145 = assay: NCI screen, growth of human tumor cells: Prostate Cancer DU-145; conditions: DV-145, 10^−4 molar
# Procedure, shortened: as §2
# MCF 7 = assay: NCI screen, growth of human tumor cells: Breast Cancer MCF 7; conditions: MCF 7 (Breast Cancer), 10^−4 molar
# Procedure, shortened: as §2
# MCF7/ADR-RES = assay: NCI screen, growth of human tumor cells: Breast Cancer MCF7/ADR-RES; conditions: MCF7/ADR-RES, 10^−4 molar
# Procedure, shortened: as §2
# BT-549 = assay: NCI screen, growth of human tumor cells: Breast Cancer BT-549; conditions: BT-549 (Breast Cancer), 10^−4 molar
# Procedure, shortened: as §2
# HS 578T = assay: NCI screen, growth of human tumor cells: Breast Cancer HS 578T; conditions: HS 578T (Breast Cancer), 10^−4 molar
# Procedure, shortened: as §2
# MDA-MB-435 = assay: NCI screen, growth of human tumor cells: Breast Cancer MDA-MB-435
# Procedure, shortened: as §2
# human cancer cells = assay: NCI screen summary over the cancers tested (negative growth of human cancer cells); conditions: cancers with negative growth / cancers tested
# Procedure: as §1
# The derivatives in the tables are grouped using the same category as in the tables 1-6.
structure (smiles),measurement,setting,value
CC=CC(=O)C1(CC2=C(C)C(=O)c3ccccc3C2=O)S(=O)(=O)OCCOS1(=O)=O [NSC 731265],percent of growth of human tumor cells,HL-60 (TB),2%
same,percent of growth of human tumor cells,K562,11%
same,percent of growth of human tumor cells,MOLT-4,2%
same,percent of growth of human tumor cells,RPMI-8226,−40%
same,% Growth,SR; 10^−4 molar,12%
same,% Growth,SR; 10^−5 molar,15%
same,% Growth,SR; 10^−6 molar,57%
same,percent of growth of human tumor cells,EKVX,−57%
same,% Growth,"HOP-62; HOP-62, 10^−4 molar",−80%
same,% Growth,"HOP-62; HOP-62, 10^−5 molar",49%
same,percent of growth of human tumor cells,HOP-18,−43%
same,percent of growth of human tumor cells,HOP-92,−43%
same,percent of growth of human tumor cells,NCI-H226,−4%
same,percent of growth of human tumor cells,NCI-H460,5%
same,% Growth,NCI-H322M,−80%
same,% Growth,NCI-H23,−74%
same,percent of growth of human tumor cells,COLO205,−50%
same,% Growth,HCT-116,−100%
same,percent of growth of human tumor cells,HT29,−6%
same,percent of growth of human tumor cells,KM12,−16%
same,percent of growth of human tumor cells,SF-268,−49%
same,percent of growth of human tumor cells,SF-295,−57%
same,% Growth,SNB-19,−87%
same,% Growth,SF-539,−79%
same,percent of growth of human tumor cells,SNB-75,−26%
same,% Growth,M14,−86%
same,percent of growth of human tumor cells,SK-MEL-2,15%
same,% Growth,SK-MEL-28,−69%
same,% Growth,SK-MEL-5,−67%
same,% Growth,"UACC-257; UACC-257, 10^−4 molar",−87%
same,% Growth,"UACC-257; UACC-257, 10^−5 molar",40%
same,percent of growth of human tumor cells,UACC-62,−13%
same,percent of growth of human tumor cells,IGROVI,4%
same,percent of growth of human tumor cells,SK-OV-3,−61%
same,percent of growth of human tumor cells,OVCAR-3,7%
same,% Growth,"OVCAR-5; OVCAR-5, 10^−4 molar",−83%
same,% Growth,"OVCAR-5; OVCAR-5, 10^−5 molar",43%
same,% Growth,"OVCAR-5; OVCAR-5, 10^−6 molar",34%
same,% Growth,"OVCAR-5; OVCAR-5, 10^−7 molar",40%
same,% Growth,"OVCAR-5; OVCAR-5, 10^−8 molar",63%
same,percent of growth of human tumor cells,OVCAR-8,−38%
same,percent of growth of human tumor cells,RXF-393,−15%
same,percent of growth of human tumor cells,TK-10,−10%
same,percent of growth of human tumor cells,SN12C,−17%
same,percent of growth of human tumor cells,CAKI-1,−2%
same,percent of growth of human tumor cells,UO-31,−10%
same,% Growth,DU-145,−78%
same,percent of growth of human tumor cells,MCF 7,−8%
same,% Growth,MCF7/ADR-RES,−53%
same,percent of growth of human tumor cells,BT-549,−54%
same,percent of growth of human tumor cells,HS 578T,−18%
same,% Growth,"MDA-MB-435; MDA-MB-435, 10^−4 molar",−71%
same,% Growth,"MDA-MB-435; MDA-MB-435, 10^−5 molar",−66%
same,Percentage of cancers showing negative growth cancers tested,human cancer cells; 10^−4 M conc.,79%
same,Percentage of cancers showing negative growth cancers tested,human cancer cells; 10^−5 M conc.,20%
